Reference: patent US10131653B2, “Heterocyclic compound” (TAKEDA PHARMACEUTICAL COMPANY LIMITED, priority 2015, dated 2018)
Counter-ions that a name gives are not always drawn. Like-named read-outs stand apart in the source and are kept apart here.

Columns and labels:
human OX1 receptor = molecular target: T1, human OX1 receptor (Homo sapiens, UniProt O43613); assay: Measurement of orexin receptor antagonistic activity (calcium fluorescence, FLIPRtetra); assay type: cell-based; details: CHO, read-out: Human Orexin1 receptor inhibition (at 10 μM)
T1 construct: expressed in transfected cells; host or cells: CHO cells
T1 sequence (O43613 1-425): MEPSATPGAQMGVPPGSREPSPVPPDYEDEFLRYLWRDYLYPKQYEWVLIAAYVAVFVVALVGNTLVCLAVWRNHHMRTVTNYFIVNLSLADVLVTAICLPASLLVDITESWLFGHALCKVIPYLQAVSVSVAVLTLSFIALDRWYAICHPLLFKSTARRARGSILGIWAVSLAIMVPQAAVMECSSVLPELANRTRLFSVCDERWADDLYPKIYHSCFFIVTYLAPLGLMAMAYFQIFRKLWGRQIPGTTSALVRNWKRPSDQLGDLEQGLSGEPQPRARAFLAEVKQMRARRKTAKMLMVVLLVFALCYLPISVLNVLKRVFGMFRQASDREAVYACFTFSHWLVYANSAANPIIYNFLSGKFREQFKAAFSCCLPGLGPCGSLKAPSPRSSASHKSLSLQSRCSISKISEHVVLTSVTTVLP
Method in brief: (§1)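 Calcium fluorescence measured by FLIPRtetra every second for 2 min after orexin-A challenge, 1 nM final for OX1 and 0.3 nM final for OX2. Receptor-expressing CHO cells received compound in HEPES-buffered HBSS with 0.1% BSA just before agonist.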

human OX2 receptor = molecular target: T2, human OX2 receptor (Homo sapiens, UniProt O43614); assay: as above; assay type: cell-based; details: CHO, read-out: Human Orexin2 receptor inhibition (at 10 μM)
T2 construct: expressed in transfected cells; host or cells: CHO cells
T2 sequence (O43614 1-444): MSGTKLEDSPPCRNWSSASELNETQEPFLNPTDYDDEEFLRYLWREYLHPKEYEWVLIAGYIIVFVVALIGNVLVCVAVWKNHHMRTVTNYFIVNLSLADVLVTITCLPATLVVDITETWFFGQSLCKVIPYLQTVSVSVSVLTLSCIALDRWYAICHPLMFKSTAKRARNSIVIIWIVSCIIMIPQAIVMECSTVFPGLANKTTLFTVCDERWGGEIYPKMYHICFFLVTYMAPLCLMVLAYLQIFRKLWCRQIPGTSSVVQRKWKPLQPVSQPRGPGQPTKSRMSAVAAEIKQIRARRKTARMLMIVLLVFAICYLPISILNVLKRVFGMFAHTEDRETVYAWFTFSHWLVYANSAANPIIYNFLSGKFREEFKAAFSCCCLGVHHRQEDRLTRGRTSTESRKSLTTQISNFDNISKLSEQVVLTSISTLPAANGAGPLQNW
Method in brief: as §1

[1] = 10 μM test compound, CHO cells expressing human OX1 receptor, OX-A 1 nM
[2] = 10 μM test compound, CHO cells expressing human OX2 receptor, OX-A 0.3 nM

Structure (SMILES) | inhibition at 10 µM (human OX1 receptor; [1]) [%] | inhibition at 10 µM (human OX2 receptor; [2]) [%] | inhibition at 10 µM (human OX1 receptor) [%] | inhibition at 10 µM (human OX2 receptor) [%]
CCOc1ccccc1C(=O)N1CCON(c2nc(C)cc(C)n2)CC1 [Example 61, (2-(4,6-dimethylpyrimidin-2-yl)-1,2,5-oxadiazepan-5-yl) (2-ethoxyphenyl)methanone] | 22 | 94 | – | –
COc1nc(N2CCN(C(=O)c3cc(C)ccc3-n3nccn3)[C@H](C)CO2)ncc1F [Example 117, ((6R)-2-(5-fluoro-4-methoxypyrimidin-2-yl)-6-methyl-1,2,5-oxadiazepan-5-yl)(5-methyl-2-(2H-1,2,3-triazol-2-yl)phenyl)methanone hydrochloride] | 77 | 100 | – | –
Cc1cc(N2CCN(C(=O)c3ccccc3-c3nccs3)CCO2)nc(C)n1 [Example 29, (2-(2,6-dimethyl-pyrimidin-4-yl)-1,2,5-oxadiazepan-5-yl) (2-(1,3-thiazol-2-yl)phenyl) methanone] | 88 | 100 | – | –
CCc1ccc(-n2nccn2)c(C(=O)N2CCON(c3cc(C)nc(C)n3)CC2)c1 [Example 203, (2-(2,6-dimethylpyrimidin-4-yl)-1,2,5-oxadiazepan-5-yl)(5-ethyl-2-(2H-1,2,3-triazol-2-yl)phenyl)methanone] | 25 | 101 | – | –
Cc1cc(C)nc(N2CCN(C(=O)c3ccccc3C(F)(F)F)CCO2)n1 [Example 62] | 2 | 72 | – | –
Cc1ccc(N2CCN(C(=O)c3cc(C)ccc3-n3nccn3)[C@H](C)CO2)nc1 [Example 141, ((6R)-6-methyl-2-(5-methylpyridin-2-yl)-1,2,5-oxadiazepan-5-yl) (5-methyl-2-(2H-1,2,3-triazol-2-yl)phenyl)methanone] | – | – | 71 | 99
Cc1cc(C)nc(N2CCN(C(=O)c3ccccc3-n3nccn3)[C@H](C)CO2)n1 [Example 147, ((6R)-2-(4,6-dimethylpyrimidin-2-yl)-6-methyl-1,2,5-oxadiazepan-5-yl) (2-(2H-1,2,3-triazol-2-yl)phenyl)methanone] | 60 | 101 | – | –
Cc1cc(C)nc(N2CCN(C(=O)c3ccccc3C)CCO2)n1 [Example 57, (2-(4,6-dimethylpyrimidin-2-yl)-1,2,5-oxadiazepan-5-yl) (2-methylphenyl)methanone] | – | – | 10 | 58
Cc1ccc(-n2nccn2)c(C(=O)N2CCN(c3ncccc3C)OC[C@H]2C)c1 [Example 145, ((6R)-6-methyl-2-(3-methylpyridin-2-yl)-1,2,5-oxadiazepan-5-yl) (5-methyl-2-(2H-1,2,3-triazol-2-yl)phenyl)methanone] | – | – | 25 | 82
COc1c(C#N)cccc1C(=O)N1CCON(c2nc(C)cc(C)n2)CC1 [Example 63, 3-((2-(4,6-dimethylpyrimidin-2-yl)-1,2,5-oxadiazepan-5-yl)carbonyl)-2-methoxybenzonitrile] | – | – | 11 | 49
CCc1ccnc(N2CCN(C(=O)c3ccccc3-n3nccn3)[C@H](C)CO2)n1 [Example 151, ((6R)-2-(4-ethylpyrimidin-2-yl)-6-methyl-1,2,5-oxadiazepan-5-yl) (2-(2H-1,2,3-triazol-2-yl)phenyl)methanone] | 81 | 98 | – | –
Cc1cc(N2CCN(C(=O)c3ccccc3-c3nc(C)cs3)C[C@H](C)O2)nc(C)n1 [Example 110, ((7S)-2-(2,6-dimethylpyrimidin-4-yl)-7-methyl-1,2,5-oxadiazepan-5-yl)(2-(4-methyl-1,3-thiazol-2-yl)phenyl)methanone] | 79 | 95 | – | –
Cc1cc(C)nc(N2CCN(C(=O)c3cccc4c3C(=O)N(C)C4)CCO2)n1 [Example 76, 7-((2-(4,6-dimethylpyrimidin-2-yl)-1,2,5-oxadiazepan-5-yl)carbonyl)-2-methylisoindolin-1-one] | – | – | 6 | 22
Cc1ccc(-n2nccn2)c(C(=O)N2[C@H](C)CON(c3cc(C(F)F)nc(C)n3)C[C@@H]2C)c1 [Example 179, ((4S,6R)-2-(6-(difluoromethyl)-2-methylpyrimidin-4-yl)-4,6-dimethyl-1,2,5-oxadiazepan-5-yl) (5-methyl-2-(2H-1,2,3-triazol-2-yl)phenyl)methanone] | 102 | 98 | – | –
COc1ccc(Cl)c(C(=O)N2CCON(c3nc(C)cc(C)n3)CC2)c1 [Example 52, (2-chloro-5-methoxyphenyl) (2-(4,6-dimethylpyrimidin-2-yl)-1,2,5-oxadiazepan-5-yl)methanone] | 16 | 96 | – | –
Cc1cc(N2CCN(C(=O)c3ccccc3-n3ncnn3)CCO2)nc(C)n1 [Example 31, (2-(2,6-dimethyl-pyrimidin-4-yl)-1,2,5-oxadiazepan-5-yl) (2-(2H-tetrazol-2-yl)phenyl) methanone] | -2 | 100 | – | –
Cc1ccc(-n2nccn2)c(C(=O)N2CCN(c3nc(C)cc(C)n3)OC[C@H]2C)c1 [Example 114, ((6R)-2-(4,6-dimethylpyrimidin-2-yl)-6-methyl-1,2,5-oxadiazepan-5-yl) (5-methyl-2-(2H-1,2,3-triazol-2-yl)phenyl)methanone] | 69 | 96 | – | –
Cc1cc(N2CCN(C(=O)c3ccccc3-n3nccn3)[C@@H](C)CO2)nc(C)n1 [Example 170, ((6S)-2-(2,6-dimethylpyrimidin-4-yl)-6-methyl-1,2,5-oxadiazepan-5-yl)(2-(2H-1,2,3-triazol-2-yl)phenyl)methanone] | 20 | 100 | – | –
CCC1CN(C(=O)c2ccccc2-n2nccn2)CCN(c2cc(C)nc(C)n2)O1 (stereo not drawn) [Example 112, (2-(2,6-dimethylpyrimidin-4-yl)-7-ethyl-1,2,5-oxadiazepan-5-yl)(2-(2H-1,2,3-triazol-2-yl)phenyl)methanone] | 90 | 101 | – | –
Cc1nc(N2CCN(C(=O)c3cc(F)ccc3-n3nccn3)C[C@H](C)O2)cc(C(F)(F)F)n1 [Example 101, (5-fluoro-2-(2H-1,2,3-triazol-2-yl)phenyl)((7S)-7-methyl-2-(2-methyl-6-(trifluoromethyl)pyrimidin-4-yl)-1,2,5-oxadiazepan-5-yl)methanone] | 50 | 101 | – | –
COc1ccccc1C(=O)N1CCON(c2nc(C)cc(C)n2)CC1 [Example 51] | 22 | 68 | – | –
Cc1cc(N2CCN(C(=O)c3ccccc3C3CCC3)CCO2)nc(C)n1 [Example 21, (2-cyclobutylphenyl) (2-(2,6-dimethylpyrimidin-4-yl)-1,2,5-oxadiazepan-5-yl)methanone] | 19 | 99 | – | –
Cc1cc(N2CCN(C(=O)c3cc(Cl)ccc3-n3nccn3)CCO2)nc(C)n1 [Example 25, (5-chloro-2-(2H-1,2,3-triazol-2-yl)phenyl) (2-(2,6-dimethyl-pyrimidin-4-yl)-1,2,5-oxadiazepan-5-yl)methanone] | 61 | 98 | – | –
Cc1cc(N2CCN(C(=O)c3cc(F)ccc3-n3nccn3)[C@H](C)CO2)nc(C)n1 [Example 162, ((6R)-2-(2,6-dimethylpyrimidin-4-yl)-6-methyl-1,2,5-oxadiazepan-5-yl)(5-fluoro-2-(2H-1,2,3-triazol-2-yl)phenyl)methanone] | 42 | 100 | – | –
Cc1cc(N2CCN(C(=O)c3cc(C#N)ccc3-n3nccn3)CCO2)nc(C)n1 [Example 44, 3-((2-(2,6-dimethylpyrimidin-4-yl)-1,2,5-oxadiazepan-5-yl)carbonyl)-4-(2H-1,2,3-triazol-2-yl)benzonitrile] | -16 | 103 | – | –
Cc1cc(C)nc(N2CCN(C(=O)c3ccccc3)CCO2)n1 [Example 46, (2-(4,6-dimethylpyrimidin-2-yl)-1,2,5-oxadiazepan-5-yl) (phenyl)methanone] | 4 | 36 | – | –
COc1cc(N2CCN(C(=O)c3ccccc3-n3nccn3)[C@H](C)CO2)nc(OC)n1 [Example 153, ((6R)-2-(2,6-dimethoxypyrimidin-4-yl)-6-methyl-1,2,5-oxadiazepan-5-yl)(2-(2H-1,2,3-triazol-2-yl)phenyl)methanone] | 94 | 99 | – | –
